Common to all, as to assay type: biochemical
The target in experiment [1] is T1, human Lck enzyme (Homo sapiens, UniProt P06239).
T1 construct: purchased Carna Biosciences, Inc. 08-170
Nature of the experiment: Lck enzyme inhibitory activity (time-resolved fluorometry, biotinylated peptide phosphorylation). Conditions: read-out: LCK_IC50. An outline of the steps: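 Readout pairs a europium cryptate-labelled anti-phosphotyrosine antibody with XL665-streptavidin, measured by time-resolved fluorescence. IC50 derived from percent inhibition against untreated controls.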

In experiment [2] the target is T2, human Src enzyme (Homo sapiens, UniProt P12931).
T2 construct: purchased Carna Biosciences, Inc. 08-173
Nature of the experiment: Src enzyme inhibitory activity (time-resolved fluorometry, biotinylated peptide phosphorylation). Conditions: read-out: SRC_IC50. An outline of the steps: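 Compounds were tested for blocking tyrosine phosphorylation of a biotinylated peptide substrate by recombinant human Src. Phosphorylated product was quantified by time-resolved fluorometry using europium cryptate and XL665 conjugates, and IC50 was calculated against the compound-free control.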

The target of experiment [3] is T3, human Yes1 enzyme (Homo sapiens, UniProt P07947).
T3 construct: made in house
The experiment in a line: Yes1 enzyme inhibitory activity (time-resolved fluorometry, biotinylated peptide phosphorylation). Conditions: read-out: YES_IC50. The procedure, abridged:
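Inhibition was expressed against a compound-free control to give IC50, using TR-FRET read-out (Eu-cryptate anti-pTyr antibody, streptavidin-XL665).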

Setting [4] is: biotinylated peptide phosphorylation.

Where two headings read alike, the source gives them in different places.

T1 sequence (P06239 whole entry): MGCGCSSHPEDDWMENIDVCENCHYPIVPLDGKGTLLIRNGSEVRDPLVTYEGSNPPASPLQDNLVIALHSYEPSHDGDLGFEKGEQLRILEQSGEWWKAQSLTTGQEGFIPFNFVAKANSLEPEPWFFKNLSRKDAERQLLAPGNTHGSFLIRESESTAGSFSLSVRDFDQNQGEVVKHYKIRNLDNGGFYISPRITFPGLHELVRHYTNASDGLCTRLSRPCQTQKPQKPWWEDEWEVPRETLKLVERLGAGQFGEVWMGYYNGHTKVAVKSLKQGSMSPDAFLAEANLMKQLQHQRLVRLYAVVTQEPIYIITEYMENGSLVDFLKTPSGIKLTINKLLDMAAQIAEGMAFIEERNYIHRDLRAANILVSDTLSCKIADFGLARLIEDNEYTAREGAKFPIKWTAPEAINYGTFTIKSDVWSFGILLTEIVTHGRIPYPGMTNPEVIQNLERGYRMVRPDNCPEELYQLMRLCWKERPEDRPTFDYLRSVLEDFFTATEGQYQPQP
T2 sequence (P12931 whole entry): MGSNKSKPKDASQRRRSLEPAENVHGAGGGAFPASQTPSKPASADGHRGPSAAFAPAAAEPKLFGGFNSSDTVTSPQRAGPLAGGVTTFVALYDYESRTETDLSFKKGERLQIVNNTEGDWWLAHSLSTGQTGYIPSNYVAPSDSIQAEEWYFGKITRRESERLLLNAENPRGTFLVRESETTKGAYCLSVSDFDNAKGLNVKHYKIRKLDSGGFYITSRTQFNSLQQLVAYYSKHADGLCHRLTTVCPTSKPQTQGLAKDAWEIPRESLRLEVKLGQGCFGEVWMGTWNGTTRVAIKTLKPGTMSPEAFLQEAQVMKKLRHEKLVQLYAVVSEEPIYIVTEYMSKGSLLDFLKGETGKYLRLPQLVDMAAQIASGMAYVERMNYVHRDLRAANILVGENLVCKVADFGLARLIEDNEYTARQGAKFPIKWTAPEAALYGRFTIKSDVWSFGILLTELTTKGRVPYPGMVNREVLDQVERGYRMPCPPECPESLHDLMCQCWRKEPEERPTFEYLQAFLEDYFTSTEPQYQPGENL
T3 sequence (P07947 whole entry): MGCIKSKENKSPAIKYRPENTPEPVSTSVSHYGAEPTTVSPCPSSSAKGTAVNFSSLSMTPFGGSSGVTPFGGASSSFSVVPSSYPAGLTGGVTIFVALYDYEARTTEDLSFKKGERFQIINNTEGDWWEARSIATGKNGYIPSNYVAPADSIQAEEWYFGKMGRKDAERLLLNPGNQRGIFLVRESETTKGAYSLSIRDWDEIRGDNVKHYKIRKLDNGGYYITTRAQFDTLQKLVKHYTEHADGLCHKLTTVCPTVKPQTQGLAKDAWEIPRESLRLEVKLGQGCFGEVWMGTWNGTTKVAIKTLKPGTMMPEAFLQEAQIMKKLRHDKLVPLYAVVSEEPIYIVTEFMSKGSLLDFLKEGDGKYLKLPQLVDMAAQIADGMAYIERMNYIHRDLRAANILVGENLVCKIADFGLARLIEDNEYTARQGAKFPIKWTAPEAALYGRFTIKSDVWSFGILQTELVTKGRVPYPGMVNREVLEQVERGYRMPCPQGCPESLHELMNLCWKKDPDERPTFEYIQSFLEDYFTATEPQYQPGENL

For `COc1ccnc(S(=O)(=O)Nc2cc3[nH]c(C(=O)c4cnn(-c5cnc(Oc6ccccc6F)cc5C)c4N)cc3cc2C)c1` [Example 5-1-482, N-[2-[5-amino-1-[6-(2-fluorophenoxy)-4-methylpyridin-3-yl]pyrazole-4-carbonyl]-5-methyl-1H-indol-6-yl]-4-methoxypyridine-2-sulfonamide], the IC50 in experiment [1] (setting [4]) amounted to 140 nM; in experiment [2] (setting [4]) it was 480 nM; in experiment [3] (setting [4]), 6.3 nM.

On to `Cc1cc(Oc2c(F)cccc2F)ncc1-n1ncc(C(=O)c2cc3cc(F)c(NS(=O)(=O)c4cccnc4)cc3[nH]2)c1N` [Example 5-1-491, N-[2-[5-amino-1-[6-(2,6-difluorophenoxy)-4-methylpyridin-3-yl]pyrazole-4-carbonyl]-5-fluoro-1H-indol-6-yl]pyridine-3-sulfonamide], for which the IC50 came to 100 nM in experiment [1] (setting [4]), 400 nM in experiment [2] (setting [4]) and 4.9 nM in experiment [3] (setting [4]).

On to `Cc1cc(Oc2ccccc2)cc(F)c1-n1ncc(C(=O)c2cc3cc(NS(C)(=O)=O)c(Cl)cc3[nH]2)c1N` [Example 4-2-095, N-[2-[5-amino-1-(2-fluoro-6-methyl-4-phenoxyphenyl)pyrazole-4-carbonyl]-6-chloro-1H-indol-5-yl]methanesulfonamide], for which the IC50 in experiment [1] (setting [4]) amounted to 5.3 nM; in experiment [2] (setting [4]), 14 nM; in experiment [3] (setting [4]) it was 0.85 nM.

For `Cc1cc(Oc2c(F)cccc2F)ncc1-n1ncc(C(=O)c2cc3cc(F)c(NS(=O)(=O)c4cccc(C#N)c4)cc3[nH]2)c1N` [Example 5-1-492, N-[2-[5-amino-1-[6-(2,6-difluorophenoxy)-4-methylpyridin-3-yl]pyrazole-4-carbonyl]-5-fluoro-1H-indol-6-yl]-3-cyanobenzenesulfonamide], the IC50 in experiment [1] (setting [4]) was 150 nM; in experiment [2] (setting [4]), 760 nM; in experiment [3] (setting [4]), 8 nM.

Consider `Cc1cc(Oc2ccccc2F)ncc1-n1ncc(C(=O)c2cc3cc(F)c(N4CC5(CCOCC5)NS4(=O)=O)cc3[nH]2)c1N` [Example 5-1-413, [5-amino-1-[6-(2-fluorophenoxy)-4-methylpyridin-3-yl]pyrazol-4-yl]-[6-(2,2-dioxo-8-oxa-2λ6-thia-1,3-diazaspiro[4.5]decan-3-yl)-5-fluoro-1H-indol-2-yl]methanone], for which the figures for the IC50 in experiment [1] (setting [4]), in experiment [2] (setting [4]) and in experiment [3] (setting [4]) were 17 nM, 90 nM and 1.5 nM, respectively.

For the molecule `Cc1cccc(S(=O)(=O)Nc2cc3[nH]c(C(=O)c4cnn(-c5cnc(Oc6c(F)cccc6F)cc5C)c4N)cc3cc2C)n1` [Example 5-1-531, N-[2-[5-amino-1-[6-(2,6-difluorophenoxy)-4-melhylpyridin-3-yl]pyrazole-4-carbonyl]-5-methyl-1H-indol-6-yl]-6-methylpyridine-2-sulfonamide], the IC50 in experiment [1] (setting [4]) was found to be 110 nM; in experiment [2] (setting [4]), 480 nM; in experiment [3] (setting [4]) it was 4.9 nM.

For `Cc1cc(Oc2ccccc2F)ccc1-n1ncc(C(=O)c2cc3cc(OC(F)F)c(N4CCN(S(C)(=O)=O)CC4)cc3[nH]2)c1N` [Example 4-23-002, [5-amino-1-[4-(2-fluorophenoxy)-2-methylphenyl]pyrazol-4-yl]-[5-(difluoromethoxy)-6-(4-methylsulfonylpiperazin-1-yl)-1H-indol-2-yl]methanone], the IC50 in experiment [1] (setting [4]) was 20 nM; in experiment [2] (setting [4]) it was 44 nM; in experiment [3] (setting [4]), 1.6 nM.

With `Cc1cc(Oc2c(F)cccc2F)ncc1-n1ncc(C(=O)c2cc3cc(C4CC4)c(NS(=O)(=O)C4CCOCC4)cc3[nH]2)c1N` [Example 5-1-395, N-[2-[5-amino-1-[6-(2,6-difluorophenoxy)-4-methylpyridin-3-yl]pyrazole-4-carbonyl]-5-cyclopropyl-1H-indol-6-yl]oxane-4-sulfonamide], the IC50 in experiment [1] stood at 66 nM; in experiment [2], 210 nM; in experiment [3], 4.8 nM.

As to `Cc1cc(Oc2ccccc2F)ccc1-n1ncc(C(=O)c2cc3cc(OC(F)F)c(C4CCN(S(C)(=O)=O)CC4)cc3[nH]2)c1N` [Example 4-17-003, [5-amino-1-[4-(2-fluorophenoxy)-2-methylphenyl]pyrazol-4-yl]-[5-(difluoromethoxy)-6-(1-methylsulfonylpiperidin-4-yl)-1H-indol-2-yl]methanone], the IC50 was 20 nM in experiment [1] (setting [4]), 23 nM in experiment [2] (setting [4]) and 7.4 nM in experiment [3] (setting [4]).

For the molecule `CC(C)N1CCC(c2cc3cc(C(=O)c4cnn(-c5ccc(Oc6ccccc6F)cc5)c4N)[nH]c3cc2F)CC1` [Example 5-1-004, [5-amino-1-[4-(2-fluorophenoxy)phenyl]pyrazol-4-yl]-[6-fluoro-5-(1-propan-2-ylpiperidin-4-yl)-1H-indol-2-yl]methanone], the results for the IC50 in experiment [1], in experiment [2] and in experiment [3] were 2.8 nM, 3.6 nM and 0.78 nM, respectively.

On to `Cc1cc(Oc2ccccc2F)ccc1-n1ncc(C(=O)c2cc3cc(OC(F)F)c(NS(=O)(=O)N4CCOCC4)cc3[nH]2)c1N` [Example 4-22-001, N-(2-(5-amino-1-(4-(2-fluorophenoxy)-2-methylphenyl)-1H-pyrazole-4-carbonyl)-5-(difluoromethoxy)-1H-indol-6-yl)morpholine-4-sulfonamide], for which the IC50 came out at 34 nM in experiment [1] (setting [4]), 90 nM in experiment [2] (setting [4]) and 2.6 nM in experiment [3] (setting [4]).

`Cc1cc2cc(C(=O)c3cnn(-c4cnc(Oc5ccccc5F)cc4C)c3N)[nH]c2cc1NS(=O)(=O)c1cnc(N(C)C)nc1` [Example 5-1-577, N-[2-[5-amino-1-[6-(2-fluorophenoxy)-4-methylpyridin-3-yl]pyrazole-4-carbonyl]-5-methyl-1H-indol-6-yl]-2-(dimethylamino) pyrimidine-5-sulfonamide]: the IC50 was 380 nM in experiment [1] (setting [4]), 1100 nM in experiment [2] (setting [4]) and 6.6 nM in experiment [3] (setting [4]).

On to `Cc1cc2cc(C(=O)c3cnn(-c4ccc(Oc5c(F)cccc5F)cc4C)c3N)[nH]c2cc1NS(C)(=O)=O` [Example 5-1-092, N-[2-[5-amino-1-[4-(2,6-difluorophenoxy)-2-methylphenyl]pyrazole-4-carbonyl]-5-methyl-1H-indol-6-yl]methanesulfonamide], for which the IC50 in experiment [1] came out at 2.8 nM; in experiment [2], 16 nM; in experiment [3], 0.91 nM.

Regarding `Cc1cc(Oc2ccccc2F)ccc1-n1ncc(C(=O)c2cc3cc(OC(F)F)c(N4CCOCC4)cc3[nH]2)c1N` [Example 4-25-024, [5-amino-1-[4-(2-fluorophenoxy)-2-methylphenyl]pyrazol-4-yl]-[5-(difluoromethoxy)-6-morpholin-4-yl-1H-indol-2-yl]methanone], the IC50 in experiment [1] (setting [4]) was determined as 29 nM; in experiment [2] (setting [4]), 55 nM; in experiment [3] (setting [4]) it was 0.69 nM.

On to `Cc1cc2cc(C(=O)c3cnn(-c4c(C)cc(Oc5cccc(Cl)c5)cc4F)c3N)[nH]c2cc1NS(C)(=O)=O` [Example 4-2-059, N-[2-[5-amino-1-[4-(3-chlorophenoxy)-2-fluoro-6-methylphenyl]pyrazole-4-carbonyl]-5-methyl-1H-indol-6-yl]methanesulfonamide], for which the IC50 is 110 nM in experiment [1] (setting [4]), 390 nM in experiment [2] (setting [4]) and 7.7 nM in experiment [3] (setting [4]).

As to `Cc1cc(Oc2c(F)cccc2F)ncc1-n1ncc(C(=O)c2cc3cc(F)c(N4C(=O)NC5(CCCCC5)C4=O)cc3[nH]2)c1N` [Example 5-1-369, 3-[2-[5-amino-1-[6-(2,6-difluorophenoxy)-4-methylpyridin-3-yl]pyrazole-4-carbonyl]-5-fluoro-1H-indol-6-yl]-1,3-diazaspiro[4.5]decane-2,4-dione], the IC50 in experiment [1] was 79 nM; in experiment [2], 560 nM; in experiment [3] it was 22 nM.

Values taken from patent US10479780B2, “Aminopyrazole derivatives” (Chugai Seiyaku Kabushiki Kaisha, priority 2015, dated 2019).
